Experiment: (§1) The drug is tested on Z-025 corresponding to rabbit gut metagenome with ENA study accession number: PRJEB37062 and ENA sample accession number: ERS12561824 for biotransformation under anaerobic condition. The drug concentrations were measured over 9 timepoints collected between 0 and 24 hours of incubation by liquid-chromatography-coupled mass spectrometry (LC–MS)
Conditions: 2 µM
Also: call rule not given here.

Bacterial Biotransformation | SMILES
Compound NOT metabolized | CCCCC(=O)N(Cc1ccc(-c2ccccc2-c2nnn[nH]2)cc1)[C@H](C(=O)O)C(C)C
Compound metabolized | CN(C)CCC=C1c2ccccc2C=Cc2ccccc21 [CYCLOBENZAPRINE]
Compound NOT metabolized | CCN(CC)CCNC(=O)c1cc(Cl)c(N)cc1OC [METOCLOPRAMIDE]

SMILES | Bacterial Biotransformation
CCC(COC(=O)c1cc(OC)c(OC)c(OC)c1)(c1ccccc1)N(C)C.O=C(O)/C=C\C(=O)O (stereo not given) | Compound NOT metabolized

Experiment: as §1, with “Z-023” for “Z-025”, “to” for “to rabbit gut”, “ERS12561822” for “ERS12561824”
Conditions: 2 µM

Bacterial Biotransformation | SMILES
Compound NOT metabolized | CCCCC(=O)N(Cc1ccc(-c2ccccc2-c2nnn[nH]2)cc1)[C@H](C(=O)O)C(C)C
Compound metabolized | CN(C)CCC=C1c2ccccc2C=Cc2ccccc21 [CYCLOBENZAPRINE]
Compound NOT metabolized | CCN(CC)CCNC(=O)c1cc(Cl)c(N)cc1OC [METOCLOPRAMIDE]

SMILES | Bacterial Biotransformation
CCC(COC(=O)c1cc(OC)c(OC)c(OC)c1)(c1ccccc1)N(C)C.O=C(O)/C=C\C(=O)O (stereo not given) | Compound metabolized

Experiment: as §1, with “Z-022” for “Z-025”, “mouse” for “rabbit”, “ERS12561821” for “ERS12561824”
Conditions: 2 µM

Bacterial Biotransformation | SMILES
Compound NOT metabolized | CCCCC(=O)N(Cc1ccc(-c2ccccc2-c2nnn[nH]2)cc1)[C@H](C(=O)O)C(C)C
Compound NOT metabolized | CN(C)CCC=C1c2ccccc2C=Cc2ccccc21 [CYCLOBENZAPRINE]
Compound NOT metabolized | CCN(CC)CCNC(=O)c1cc(Cl)c(N)cc1OC [METOCLOPRAMIDE]

SMILES | Bacterial Biotransformation
CCC(COC(=O)c1cc(OC)c(OC)c(OC)c1)(c1ccccc1)N(C)C.O=C(O)/C=C\C(=O)O (stereo not given) | Compound metabolized

Experiment: as §1, with “Z-021” for “Z-025”, “to” for “to rabbit gut”, “ERS12561820” for “ERS12561824”
Conditions: 2 µM

Bacterial Biotransformation | SMILES
Compound metabolized | CCCCC(=O)N(Cc1ccc(-c2ccccc2-c2nnn[nH]2)cc1)[C@H](C(=O)O)C(C)C
Compound metabolized | CN(C)CCC=C1c2ccccc2C=Cc2ccccc21 [CYCLOBENZAPRINE]
Compound NOT metabolized | CCN(CC)CCNC(=O)c1cc(Cl)c(N)cc1OC [METOCLOPRAMIDE]

SMILES | Bacterial Biotransformation
CCC(COC(=O)c1cc(OC)c(OC)c(OC)c1)(c1ccccc1)N(C)C.O=C(O)/C=C\C(=O)O (stereo not given) | Compound metabolized

Experiment: as §1, with “Z-011” for “Z-025”, “mouse” for “rabbit”, “ERS12561811” for “ERS12561824”
Conditions: 2 µM

Bacterial Biotransformation | SMILES
Compound NOT metabolized | CCCCC(=O)N(Cc1ccc(-c2ccccc2-c2nnn[nH]2)cc1)[C@H](C(=O)O)C(C)C
Compound NOT metabolized | CN(C)CCC=C1c2ccccc2C=Cc2ccccc21 [CYCLOBENZAPRINE]
Compound NOT metabolized | CCN(CC)CCNC(=O)c1cc(Cl)c(N)cc1OC [METOCLOPRAMIDE]

SMILES | Bacterial Biotransformation
CCC(COC(=O)c1cc(OC)c(OC)c(OC)c1)(c1ccccc1)N(C)C.O=C(O)/C=C\C(=O)O (stereo not given) | Compound NOT metabolized

Experiment: as §1, with “Z-006” for “Z-025”, “mouse” for “rabbit”, “ERS12561806” for “ERS12561824”
Conditions: 2 µM

Bacterial Biotransformation | SMILES
Compound NOT metabolized | CCCCC(=O)N(Cc1ccc(-c2ccccc2-c2nnn[nH]2)cc1)[C@H](C(=O)O)C(C)C
Compound NOT metabolized | CN(C)CCC=C1c2ccccc2C=Cc2ccccc21 [CYCLOBENZAPRINE]
Compound NOT metabolized | CCN(CC)CCNC(=O)c1cc(Cl)c(N)cc1OC [METOCLOPRAMIDE]

SMILES | Bacterial Biotransformation
CCC(COC(=O)c1cc(OC)c(OC)c(OC)c1)(c1ccccc1)N(C)C.O=C(O)/C=C\C(=O)O (stereo not given) | Compound NOT metabolized

Experiment: as §1, with “WLS-098” for “Z-025”, “human” for “rabbit”, “ERS12561754” for “ERS12561824”
Conditions: 2 µM

Bacterial Biotransformation | SMILES
Compound metabolized | CCCCC(=O)N(Cc1ccc(-c2ccccc2-c2nnn[nH]2)cc1)[C@H](C(=O)O)C(C)C
Compound metabolized | CN(C)CCC=C1c2ccccc2C=Cc2ccccc21 [CYCLOBENZAPRINE]
Compound NOT metabolized | CCN(CC)CCNC(=O)c1cc(Cl)c(N)cc1OC [METOCLOPRAMIDE]

SMILES | Bacterial Biotransformation
CCC(COC(=O)c1cc(OC)c(OC)c(OC)c1)(c1ccccc1)N(C)C.O=C(O)/C=C\C(=O)O (stereo not given) | Compound NOT metabolized

Experiment: as §1, with “WLS-052” for “Z-025”, “human” for “rabbit”, “ERS12561747” for “ERS12561824”
Conditions: 2 µM

Bacterial Biotransformation | SMILES
Compound metabolized | CCCCC(=O)N(Cc1ccc(-c2ccccc2-c2nnn[nH]2)cc1)[C@H](C(=O)O)C(C)C
Compound metabolized | CN(C)CCC=C1c2ccccc2C=Cc2ccccc21 [CYCLOBENZAPRINE]
Compound NOT metabolized | CCN(CC)CCNC(=O)c1cc(Cl)c(N)cc1OC [METOCLOPRAMIDE]

SMILES | Bacterial Biotransformation
CCC(COC(=O)c1cc(OC)c(OC)c(OC)c1)(c1ccccc1)N(C)C.O=C(O)/C=C\C(=O)O (stereo not given) | Compound NOT metabolized

Experiment: as §1, with “WLS-039” for “Z-025”, “human” for “rabbit”, “ERS12561746” for “ERS12561824”
Conditions: 2 µM

Bacterial Biotransformation | SMILES
Compound metabolized | CCCCC(=O)N(Cc1ccc(-c2ccccc2-c2nnn[nH]2)cc1)[C@H](C(=O)O)C(C)C
Compound metabolized | CN(C)CCC=C1c2ccccc2C=Cc2ccccc21 [CYCLOBENZAPRINE]
Compound NOT metabolized | CCN(CC)CCNC(=O)c1cc(Cl)c(N)cc1OC [METOCLOPRAMIDE]

SMILES | Bacterial Biotransformation
CCC(COC(=O)c1cc(OC)c(OC)c(OC)c1)(c1ccccc1)N(C)C.O=C(O)/C=C\C(=O)O (stereo not given) | Compound NOT metabolized

Experiment: as §1, with “WLS-027” for “Z-025”, “human” for “rabbit”, “ERS12561744” for “ERS12561824”
Conditions: 2 µM

Bacterial Biotransformation | SMILES
Compound metabolized | CCCCC(=O)N(Cc1ccc(-c2ccccc2-c2nnn[nH]2)cc1)[C@H](C(=O)O)C(C)C
Compound metabolized | CN(C)CCC=C1c2ccccc2C=Cc2ccccc21 [CYCLOBENZAPRINE]
Compound NOT metabolized | CCN(CC)CCNC(=O)c1cc(Cl)c(N)cc1OC [METOCLOPRAMIDE]

SMILES | Bacterial Biotransformation
CCC(COC(=O)c1cc(OC)c(OC)c(OC)c1)(c1ccccc1)N(C)C.O=C(O)/C=C\C(=O)O (stereo not given) | Compound metabolized

Experiment: as §1, with “WLS-010” for “Z-025”, “human” for “rabbit”, “ERS12561743” for “ERS12561824”
Conditions: 2 µM

Bacterial Biotransformation | SMILES
Compound metabolized | CCCCC(=O)N(Cc1ccc(-c2ccccc2-c2nnn[nH]2)cc1)[C@H](C(=O)O)C(C)C
Compound metabolized | CN(C)CCC=C1c2ccccc2C=Cc2ccccc21 [CYCLOBENZAPRINE]
Compound NOT metabolized | CCN(CC)CCNC(=O)c1cc(Cl)c(N)cc1OC [METOCLOPRAMIDE]

SMILES | Bacterial Biotransformation
CCC(COC(=O)c1cc(OC)c(OC)c(OC)c1)(c1ccccc1)N(C)C.O=C(O)/C=C\C(=O)O (stereo not given) | Compound NOT metabolized

Conditions: human gut metagenome, 24 h, 2 µM

Bacterial Biotransformation | SMILES
Compound metabolized | CCCCC(=O)N(Cc1ccc(-c2ccccc2-c2nnn[nH]2)cc1)[C@H](C(=O)O)C(C)C
Compound metabolized | CN(C)CCC=C1c2ccccc2C=Cc2ccccc21 [CYCLOBENZAPRINE]
Compound NOT metabolized | CCN(CC)CCNC(=O)c1cc(Cl)c(N)cc1OC [METOCLOPRAMIDE]

SMILES | Bacterial Biotransformation
CCC(COC(=O)c1cc(OC)c(OC)c(OC)c1)(c1ccccc1)N(C)C.O=C(O)/C=C\C(=O)O (stereo not given) | Compound NOT metabolized

Conditions: human gut metagenome, 24 h, 2 µM
Remark: another data set of the same source

Bacterial Biotransformation | SMILES
Compound metabolized | CCCCC(=O)N(Cc1ccc(-c2ccccc2-c2nnn[nH]2)cc1)[C@H](C(=O)O)C(C)C
Compound metabolized | CN(C)CCC=C1c2ccccc2C=Cc2ccccc21 [CYCLOBENZAPRINE]
Compound NOT metabolized | CCN(CC)CCNC(=O)c1cc(Cl)c(N)cc1OC [METOCLOPRAMIDE]

SMILES | Bacterial Biotransformation
CCC(COC(=O)c1cc(OC)c(OC)c(OC)c1)(c1ccccc1)N(C)C.O=C(O)/C=C\C(=O)O (stereo not given) | Compound NOT metabolized

Conditions: human gut metagenome, 24 h, 2 µM
Remark: another data set of the same source

Bacterial Biotransformation | SMILES
Compound metabolized | CCCCC(=O)N(Cc1ccc(-c2ccccc2-c2nnn[nH]2)cc1)[C@H](C(=O)O)C(C)C
Compound metabolized | CN(C)CCC=C1c2ccccc2C=Cc2ccccc21 [CYCLOBENZAPRINE]
Compound NOT metabolized | CCN(CC)CCNC(=O)c1cc(Cl)c(N)cc1OC [METOCLOPRAMIDE]

SMILES | Bacterial Biotransformation
CCC(COC(=O)c1cc(OC)c(OC)c(OC)c1)(c1ccccc1)N(C)C.O=C(O)/C=C\C(=O)O (stereo not given) | Compound NOT metabolized

Conditions: human gut metagenome, 24 h, 2 µM
Remark: another data set of the same source

Bacterial Biotransformation | SMILES
Compound metabolized | CCCCC(=O)N(Cc1ccc(-c2ccccc2-c2nnn[nH]2)cc1)[C@H](C(=O)O)C(C)C
Compound metabolized | CN(C)CCC=C1c2ccccc2C=Cc2ccccc21 [CYCLOBENZAPRINE]
Compound NOT metabolized | CCN(CC)CCNC(=O)c1cc(Cl)c(N)cc1OC [METOCLOPRAMIDE]

SMILES | Bacterial Biotransformation
CCC(COC(=O)c1cc(OC)c(OC)c(OC)c1)(c1ccccc1)N(C)C.O=C(O)/C=C\C(=O)O (stereo not given) | Compound metabolized

Conditions: human gut metagenome, 24 h, 2 µM
Remark: another data set of the same source

Bacterial Biotransformation | SMILES
Compound metabolized | CCCCC(=O)N(Cc1ccc(-c2ccccc2-c2nnn[nH]2)cc1)[C@H](C(=O)O)C(C)C
Compound metabolized | CN(C)CCC=C1c2ccccc2C=Cc2ccccc21 [CYCLOBENZAPRINE]
Compound NOT metabolized | CCN(CC)CCNC(=O)c1cc(Cl)c(N)cc1OC [METOCLOPRAMIDE]

SMILES | Bacterial Biotransformation
CCC(COC(=O)c1cc(OC)c(OC)c(OC)c1)(c1ccccc1)N(C)C.O=C(O)/C=C\C(=O)O (stereo not given) | Compound NOT metabolized

Conditions: human gut metagenome, 24 h, 2 µM
Remark: another data set of the same source

Bacterial Biotransformation | SMILES
Compound metabolized | CCCCC(=O)N(Cc1ccc(-c2ccccc2-c2nnn[nH]2)cc1)[C@H](C(=O)O)C(C)C
Compound metabolized | CN(C)CCC=C1c2ccccc2C=Cc2ccccc21 [CYCLOBENZAPRINE]
Compound NOT metabolized | CCN(CC)CCNC(=O)c1cc(Cl)c(N)cc1OC [METOCLOPRAMIDE]

SMILES | Bacterial Biotransformation
CCC(COC(=O)c1cc(OC)c(OC)c(OC)c1)(c1ccccc1)N(C)C.O=C(O)/C=C\C(=O)O (stereo not given) | Compound metabolized

Conditions: human gut metagenome, 24 h, 2 µM
Remark: another data set of the same source

Bacterial Biotransformation | SMILES
Compound NOT metabolized | CCCCC(=O)N(Cc1ccc(-c2ccccc2-c2nnn[nH]2)cc1)[C@H](C(=O)O)C(C)C
Compound NOT metabolized | CN(C)CCC=C1c2ccccc2C=Cc2ccccc21 [CYCLOBENZAPRINE]
Compound NOT metabolized | CCN(CC)CCNC(=O)c1cc(Cl)c(N)cc1OC [METOCLOPRAMIDE]

SMILES | Bacterial Biotransformation
CCC(COC(=O)c1cc(OC)c(OC)c(OC)c1)(c1ccccc1)N(C)C.O=C(O)/C=C\C(=O)O (stereo not given) | Compound NOT metabolized

Conditions: human gut metagenome, 24 h, 2 µM
Remark: another data set of the same source

Bacterial Biotransformation | SMILES
Compound NOT metabolized | CCCCC(=O)N(Cc1ccc(-c2ccccc2-c2nnn[nH]2)cc1)[C@H](C(=O)O)C(C)C
Compound NOT metabolized | CN(C)CCC=C1c2ccccc2C=Cc2ccccc21 [CYCLOBENZAPRINE]
Compound NOT metabolized | CCN(CC)CCNC(=O)c1cc(Cl)c(N)cc1OC [METOCLOPRAMIDE]

SMILES | Bacterial Biotransformation
CCC(COC(=O)c1cc(OC)c(OC)c(OC)c1)(c1ccccc1)N(C)C.O=C(O)/C=C\C(=O)O (stereo not given) | Compound NOT metabolized

Conditions: human gut metagenome, 24 h, 2 µM
Remark: another data set of the same source

Bacterial Biotransformation | SMILES
Compound metabolized | CCCCC(=O)N(Cc1ccc(-c2ccccc2-c2nnn[nH]2)cc1)[C@H](C(=O)O)C(C)C
Compound NOT metabolized | CN(C)CCC=C1c2ccccc2C=Cc2ccccc21 [CYCLOBENZAPRINE]
Compound metabolized | CCN(CC)CCNC(=O)c1cc(Cl)c(N)cc1OC [METOCLOPRAMIDE]

SMILES | Bacterial Biotransformation
CCC(COC(=O)c1cc(OC)c(OC)c(OC)c1)(c1ccccc1)N(C)C.O=C(O)/C=C\C(=O)O (stereo not given) | Compound metabolized
